Measurements: article PMC3857490, “Discovery of a metabolic alternative to the classical mevalonate pathway” (eLife, 2013)
Values belong to the molecule of their own block, whether it stands above or below them.

Assays:
Experiment in all cases: pyruvate kinase-lactate dehydrogenase coupled assay
PMK from S. solfataricus = target: T1, PMK from S. solfataricus (Saccharolobus solfataricus, UniProt Q97UL6); assay type: biochemical; conditions: co-substrate ATP; Ki from the fit of the substrate's own saturation curve (substrate inhibition); racemic (RS)-MVAP
T1 construct: gene SSO2988; full length, N-terminal thrombin-cleavable 8-His tag (pET28a), E. coli BL21(DE3)
T1 sequence (Q97UL6 1-323): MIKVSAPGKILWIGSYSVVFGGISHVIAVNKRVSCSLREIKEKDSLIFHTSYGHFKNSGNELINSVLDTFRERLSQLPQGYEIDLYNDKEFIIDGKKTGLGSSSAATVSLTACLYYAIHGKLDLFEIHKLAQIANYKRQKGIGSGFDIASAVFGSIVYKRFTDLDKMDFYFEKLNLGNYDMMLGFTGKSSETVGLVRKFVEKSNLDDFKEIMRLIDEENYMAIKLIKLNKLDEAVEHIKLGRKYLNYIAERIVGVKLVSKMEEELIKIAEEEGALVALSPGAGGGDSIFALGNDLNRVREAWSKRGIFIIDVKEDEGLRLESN
From the text: (§1) pyruvate kinase-lactate dehydrogenase coupled assay on PMK from S. solfataricus

MDD from A. thaliana = target: T2, MDD from A. thaliana (Arabidopsis thaliana, UniProt O23722); assay type: biochemical; conditions: co-substrate ATP; racemic (RS)-MVAPP
T2 construct: gene MVD1; synthetic gene, thrombin-cleavable 9-His tag (pHIS9GW), E. coli BL21(DE3)
T2 sequence (O23722 1-412): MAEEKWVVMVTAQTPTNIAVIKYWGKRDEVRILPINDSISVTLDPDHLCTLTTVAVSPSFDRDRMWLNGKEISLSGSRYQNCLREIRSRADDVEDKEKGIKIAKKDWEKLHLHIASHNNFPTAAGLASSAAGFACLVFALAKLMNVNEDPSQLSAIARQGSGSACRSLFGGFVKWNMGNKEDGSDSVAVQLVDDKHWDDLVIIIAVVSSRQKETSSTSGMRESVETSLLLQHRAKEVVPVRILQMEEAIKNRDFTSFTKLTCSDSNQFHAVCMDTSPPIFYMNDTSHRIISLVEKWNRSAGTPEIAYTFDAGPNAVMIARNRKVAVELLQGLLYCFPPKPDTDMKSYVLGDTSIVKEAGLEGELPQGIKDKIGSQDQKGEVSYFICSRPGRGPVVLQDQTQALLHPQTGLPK
From the text: pyruvate kinase-lactate dehydrogenase coupled assay on MDD from A. thaliana

IPK from A. thaliana = target: T3, IPK from A. thaliana (Arabidopsis thaliana, UniProt Q8H1F7); assay type: biochemical; conditions: co-substrate ATP; Ki from the fit of the substrate's own saturation curve (substrate inhibition); four IP concentrations, 2-100 µM
T3 construct: synthetic gene, thrombin-cleavable 9-His tag (pHIS9GW), E. coli BL21(DE3)
T3 sequence (Q8H1F7 1-332): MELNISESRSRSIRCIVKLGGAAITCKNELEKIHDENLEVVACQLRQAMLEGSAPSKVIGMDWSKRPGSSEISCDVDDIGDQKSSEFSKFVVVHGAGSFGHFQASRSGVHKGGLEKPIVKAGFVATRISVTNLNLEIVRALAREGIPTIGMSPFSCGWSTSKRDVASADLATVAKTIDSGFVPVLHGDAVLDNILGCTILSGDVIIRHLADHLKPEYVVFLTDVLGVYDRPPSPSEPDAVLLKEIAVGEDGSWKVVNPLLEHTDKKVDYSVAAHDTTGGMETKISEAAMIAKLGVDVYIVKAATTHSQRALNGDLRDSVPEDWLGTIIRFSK

IPK from B. floridae [1] = target: T4, IPK from B. floridae (Branchiostoma floridae, UniProt A0A9J7KY69); assay type: biochemical; conditions: co-substrate ATP; Ki from the fit of the substrate's own saturation curve (substrate inhibition)
T4 construct: gene LOC118413305
T4 sequence (A0A9J7KY69 1-298): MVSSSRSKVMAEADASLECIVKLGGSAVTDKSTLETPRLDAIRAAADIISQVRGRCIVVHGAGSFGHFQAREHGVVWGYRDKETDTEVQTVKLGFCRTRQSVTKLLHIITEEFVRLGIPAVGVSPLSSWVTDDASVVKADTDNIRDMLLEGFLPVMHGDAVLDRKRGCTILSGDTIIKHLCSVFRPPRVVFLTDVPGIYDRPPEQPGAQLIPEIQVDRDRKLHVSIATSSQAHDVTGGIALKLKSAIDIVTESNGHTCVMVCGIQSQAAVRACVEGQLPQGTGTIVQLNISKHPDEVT
From the text: pyruvate kinase-lactate dehydrogenase coupled assay on IPK from B. floridae

IPK from B. floridae [2] = target: T4, IPK from B. floridae; assay type: biochemical; conditions: co-substrate ATP; fit with substrate inhibition
IPK from T. adhaerens = target: T5, IPK from T. adhaerens (Trichoplax adhaerens, UniProt B3RKZ8); assay type: biochemical; conditions: co-substrate ATP; four IP concentrations, 2-100 µM
T5 construct: gene TRIADDRAFT_51825
T5 sequence (B3RKZ8 1-281): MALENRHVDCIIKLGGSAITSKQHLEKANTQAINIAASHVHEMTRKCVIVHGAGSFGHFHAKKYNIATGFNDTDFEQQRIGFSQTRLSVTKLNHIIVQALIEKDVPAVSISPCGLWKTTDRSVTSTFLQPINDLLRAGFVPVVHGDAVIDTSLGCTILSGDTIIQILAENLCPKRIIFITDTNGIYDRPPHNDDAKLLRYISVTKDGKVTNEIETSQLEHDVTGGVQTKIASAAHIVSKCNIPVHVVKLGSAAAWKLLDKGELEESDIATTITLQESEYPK

[3] = substrate: CC(O)(CCOP(=O)(O)O)CC(=O)O; assay type: biochemical, Roseiflexus castenholzii; conditions: co-substrate ATP, racemic (RS)-MVAP, below the organism's growth temperature (50 C and above)
From the text: pyruvate kinase-lactate dehydrogenase coupled assay on MPD from R. castenholzii (annotated MDD)

[4] = substrate: CC(O)(CCOP(=O)(O)O)CC(=O)O; assay type: biochemical, Saccharolobus solfataricus; conditions: co-substrate ATP; racemic (RS)-MVAP; fit with substrate inhibition
From the text: as §1

Ki (μM) (PMK from S. solfataricus): 5500 (± 2200) μM
Molecule: CC(O)(CCOP(=O)(O)O)CC(=O)O (racemic) [compound 3, phosphomevalonate]

Km (MDD from A. thaliana): 15.7 µM
Molecule: CC(O)(CCOP(=O)(O)OP(=O)(O)O)CC(=O)O (racemic) [compound 5, diphosphomevalonate]

Ki (μM) (IPK from A. thaliana): 522 (± 381) μM
Ki (μM) (IPK from B. floridae [1]): 2820 (± 1700) μM
Km (IPK from B. floridae [2]): 13.3 µM
Km (IPK from T. adhaerens): 3.1 µM
Molecule: C=C(C)CCOP(=O)(O)O [compound 4, isopentenyl phosphate]

B1: MPD from R. castenholzii (annotated MDD) (Roseiflexus castenholzii DSM 13941) (protein)
chain: MYHRPLERMPGLATAIPAPYADLVERMATADADLRAALRAHGLTWEEYPDLTGAARERGAAAALAYPMQGVLKYHGLSDWDYRIAFLPSVSLCNDAGHTLTLVEFDPDLATDCATINGHVARGRELERVRQSLDAIRAASGATVRARVMSRNVTRGTRMGKGLGSSAAASAALALAAIAALYGDEAAANRRLVSCMARLLAGSGCRSAAGGCSIWFSSPGMPHEDSFAVRLDDAGQLDDVRLITVPLDSRIGLKTEQAHLDAPGSALFRCWMLSRRDEALACIAAARTGDWRTLGQWAELDSMRLHGITMSGSLENKLIGWEPENIVLFRMCNDLRSSGVPVYCSTDTGPTAVFITHRDYEDAVVSAIEGLGLSLEAIRGRVAGPARLVDIAWAGGELGVAD
notes: synthetic gene, 9-His tag removed with thrombin, E. coli BL21(DE3), Mono Q and Superdex 200
Km [3]: 152 (± 38) μM
kcat [3]: 1.7 ± 0.1 s⁻¹
kcat/Km [3]: 11000 ± 3000 M⁻¹ s⁻¹

B2: PMK from S. solfataricus (Saccharolobus solfataricus P2) (protein)
chain: T1 sequence (Q97UL6 1-323)
notes: full length, N-terminal thrombin-cleavable 8-His tag (pET28a), E. coli BL21(DE3)
Km [4]: 23.1 (± 3.8) μM
kcat [4]: 1.98 ± 0.1 s⁻¹
kcat/Km [4]: 90000 ± 10000 M⁻¹ s⁻¹
